Earlier results in patent US8025907B2, “Cosmetic composition to accelerate repair of functional wrinkles” (priority 2005, dated 2011).

How the values were obtained:
[1] = system: forehead expression lines; conditions: 28 days

Substance | reduction of forehead expression lines [1] | wrinkle depth reduction by the hexapeptide component (wrinkles; after thirty days, after factoring the influence of the cosmetic base ingredient) | time before a visible reduction in wrinkles can occur (wrinkles; on average)
Dipeptide Diaminobutyroyl Benzalamide Diacetate | up to 52% |  | 
acetyl hexapeptide-3 |  | less than 30% | up to 30 days
